Reference: patent publication US11390621B2, “Chiral indole compounds and their use” (ARIAGEN, INC., priority 2019, dated 2022)
Where “and” joins values, the source holds several entries; their conditions need not be identical. Equal values may be shown once.

Legend:
[1] = Hepatocyte intrinsic clearance assay (metabolic stability), rat hepatocytes; format: in vitro ADME; settings: rat, cryopreserved hepatocytes, Rat Hepatocytes, 1 μM test compound
From the text: (§1) The liver is an important organ in the body for drug metabolism. This Example describes hepatocyte intrinsic clearance assays using both human and rat hepatocytes to evaluate the metabolic stability of the indole compounds disclosed herein. The parameters measured include t1/2 (half-life), CLint (intrinsic clearance), and EH (hepatic extraction ratio).
(§2) Testosterone (Lot FE111011-01) was obtained from Cerilliant (Round Rock, Tex.). 7-hydroxycoumarin (Lot 11631ED) was obtained from Sigma Aldrich (St. Louis, Mo.). Cryopreserved human hepatocytes pooled from ten donor males (X008001), cryopreserved male IRC/CD-1 mouse hepatocytes (M005052), INVITROGRO HI Medium (incubation), and INVITROGRO HT Medium (thawing) were obtained from Bioreclamation IVT (Baltimore, Md.). All solvents were obtained from commercial sources and used without further purification.
(§3) Each test compound was prepared as a 1 mM stock solution in DMSO. A 2 μM solution of test compound and positive controls were prepared in INVITROGRO HI Medium (incubation). These solutions were pre-warmed in a sterile incubator set to maintain 37° C., 5% CO2, and 98% humidity. Cryopreserved hepatocytes were prepared at a concentration of 2×10^6 living cells/mL in incubation media and pre-warmed in the incubator. The compound solutions and hepatocyte mixtures were then combined at a ratio of 1:1 (v:v). The final volume of the reaction mixture was 750 μL, containing 1 μM test compound (10 μM for 7-hydroxycoumarin) and […]. The reaction mixture was placed in the incubator on a plate shaker. After 0, 15, 30, 60, 90, and 120 minutes of incubation, 100 μL of reaction mixtures were removed from the incubation plate and mixed with 150 μL of ice-cold acetonitrile in a designated well of a 96-well crash plate. The 96-well crash plate was placed on ice for 15 min, and samples were centrifuged (3,600 RPM, 10 min, 4° C.) to precipitate protein. The supernatants were diluted 1:1 (v:v) with water containing 0.15 μM verapamil and/or 1 μM tolbutamide (internal standards for positive and negative modes, respectively) in a 96-well shallow injection plate. This plate was sealed for LC-MS analysis. All measurements were done in duplicate.
(§4) The residual compound remaining (% R) was determined from LC-MS peak areas by comparison to the zero time point. Metabolic half-life (t1/2) and intrinsic clearance (CLint) values were calculated from the slope of the plot of ln (% R) vs. time and the concentration of hepatocytes present in the incubation. Percent remaining at 60 minutes was calculated by plugging in the 60 minute value into the slope equation generated by the percent remaining time points.
(§5) In vivo hepatic clearance CLH was calculated using the well stirred liver model according to the following equation:
(§6) [formula] where QH is the total liver blood flow, fu is unbound fraction of the drug, and CL′int is defined as follows: CL′int=CLint×(10^6 cells/g of liver weight)×(g liver weight/kg of body weight). In the first approximation, used in this study, fu=1.
(§7) Hepatic extraction ratio EH was calculated using the following equation:
(§8) [formula] Corresponding physiological parameters used in calculations for all species are shown below in Table 3.

rat hepatocytes = test: as above; format: in vitro ADME; settings: Rat Hepatocytes; for EH (hepatic extraction ratio): well stirred liver model, fu=1
From the text: as §1, §2, §3, §4, §5, §6, §7, §8

human hepatocytes = test: Hepatocyte intrinsic clearance assay (metabolic stability), human hepatocytes; format: in vitro ADME; settings: Human Hepatocytes; for EH (hepatic extraction ratio): well stirred liver model, fu=1
From the text: as §1, §2, §3, §4, §5, §6, §7, §8

[2] = as above; format: in vitro ADME; settings: male, human, cryopreserved pooled hepatocytes, Human Hepatocytes, 1 μM test compound
From the text: as §1, §2, §3, §4, §5, §6, §7, §8

AhR = biological target: T1, AhR (Homo sapiens, UniProt P35869); test: EROD assay (7-ethoxy-resorufin-O-deethylase; CYP1A1 activity) in human HepG2 cells; format: cell-based
T1 construct: host or cells: human HepG2 cells
T1 sequence (P35869 11-848): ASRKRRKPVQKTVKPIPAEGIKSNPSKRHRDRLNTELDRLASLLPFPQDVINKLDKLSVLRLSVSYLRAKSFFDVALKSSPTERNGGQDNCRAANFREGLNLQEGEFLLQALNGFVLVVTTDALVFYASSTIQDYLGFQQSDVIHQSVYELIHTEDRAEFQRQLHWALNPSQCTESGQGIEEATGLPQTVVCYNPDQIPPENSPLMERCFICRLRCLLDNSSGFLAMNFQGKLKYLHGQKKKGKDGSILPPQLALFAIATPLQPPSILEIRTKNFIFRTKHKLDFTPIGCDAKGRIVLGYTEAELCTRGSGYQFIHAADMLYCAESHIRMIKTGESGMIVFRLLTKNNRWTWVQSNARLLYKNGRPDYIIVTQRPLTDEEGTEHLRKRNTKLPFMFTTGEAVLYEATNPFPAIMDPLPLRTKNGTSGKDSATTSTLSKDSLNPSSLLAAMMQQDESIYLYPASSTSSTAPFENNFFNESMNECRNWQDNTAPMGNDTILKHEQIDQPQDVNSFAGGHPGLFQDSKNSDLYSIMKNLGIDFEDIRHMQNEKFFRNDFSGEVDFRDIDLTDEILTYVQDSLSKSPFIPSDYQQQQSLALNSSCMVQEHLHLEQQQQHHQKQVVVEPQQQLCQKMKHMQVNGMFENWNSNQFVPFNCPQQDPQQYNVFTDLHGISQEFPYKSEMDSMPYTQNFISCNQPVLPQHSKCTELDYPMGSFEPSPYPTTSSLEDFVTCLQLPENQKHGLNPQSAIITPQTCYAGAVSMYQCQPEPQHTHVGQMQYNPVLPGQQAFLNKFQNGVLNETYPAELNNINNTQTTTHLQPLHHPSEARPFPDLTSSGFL
Method: CYP1A1 induction is under the control of the AhR signaling pathway. This Example describes an in vitro assay (7-ethoxy-resorufin-O-deethylase (EROD) assay) that evaluated the AhR modulating activities of the indole compounds described herein. In this assay, the indole compounds were incubated with human HepG2 cells or mouse Hepa1-6 cells. The activity of CYP1A1 in the cells was measured by the conversion of substrate 7-ethoxyresorufin, with the readout being a fluorescence signal associated with the conversion product. The EC50 values of the indole compounds as well as the maximum luminescence induced by them in the assay were determined.
Human HepG2 cells were obtained from Sigma Aldrich (Catalog 85011430-1VL).
Human HepG2 cells were grown to 60-80% confluency in tissue culture flasks, lifted with non-enzymatic cell dissociation solution (cell stripper), seeded in a 384-well plate at 5,000 cells per well, treated with the test compounds, and incubated for 20 hours overnight at 37° C. The treatment medium was removed and a solution of substrate 7-ethoxyresorufin (ETX) was added to initiate the reaction. The plate was incubated at 37° C. for 30 minutes. The reaction was subsequently terminated by adding tempered methanol. Fluorescent emission was measured at 590 nm with excitation at 530 nm in a FLEXSTATION III instrument (Molecular Devices).

CYP1A2 = biological target: T2, CYP1A2 (Homo sapiens, UniProt P05177); test: CYP profiling: human liver microsomes with CYP1A2 inhibitor furafylline; format: in vitro ADME; design: % Compound Metabolized at 30 min, CYP1A2 Inhibitor: concentration or dose not given beside the values; settings: HLMs; for % Inhibition Relative to Negative Control, 1A2: 30 min
T2 construct: from tissue; host or cells: human liver microsomes
T2 sequence (P05177 1-516): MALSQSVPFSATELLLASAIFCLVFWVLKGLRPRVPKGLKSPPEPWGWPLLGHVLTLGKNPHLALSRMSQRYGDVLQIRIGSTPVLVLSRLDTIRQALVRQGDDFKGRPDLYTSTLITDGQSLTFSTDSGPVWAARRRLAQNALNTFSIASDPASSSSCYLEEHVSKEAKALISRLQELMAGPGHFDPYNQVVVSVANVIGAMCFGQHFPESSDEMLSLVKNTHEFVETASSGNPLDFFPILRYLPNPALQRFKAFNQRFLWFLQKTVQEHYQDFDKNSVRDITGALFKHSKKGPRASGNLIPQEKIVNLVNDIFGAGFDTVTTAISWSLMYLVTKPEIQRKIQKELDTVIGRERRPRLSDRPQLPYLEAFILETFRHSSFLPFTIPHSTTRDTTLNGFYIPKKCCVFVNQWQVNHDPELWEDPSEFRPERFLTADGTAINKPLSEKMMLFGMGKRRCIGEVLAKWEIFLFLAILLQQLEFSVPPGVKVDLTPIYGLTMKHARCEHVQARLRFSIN
Method: (§9) In order to investigate the contributions of CYP1A2 and CYP3A4 to the metabolism of the compounds of the present disclosure, human liver microsomes were incubated with the test compounds for 30 minutes in the presence of selective chemical inhibitors furafylline (1A2) and ketoconazole (3A4).

CYP3A4 = biological target: T3, CYP3A4 (Homo sapiens, UniProt P08684); test: CYP profiling: human liver microsomes with CYP3A4 inhibitor ketoconazole; format: in vitro ADME; design: % Compound Metabolized at 30 min, CYP3A4 Inhibitor: concentration or dose not given beside the values; settings: HLMs; for % Inhibition Relative to Negative Control, 3A4: 30 min
T3 construct: from tissue; host or cells: human liver microsomes
T3 sequence (P08684 whole entry): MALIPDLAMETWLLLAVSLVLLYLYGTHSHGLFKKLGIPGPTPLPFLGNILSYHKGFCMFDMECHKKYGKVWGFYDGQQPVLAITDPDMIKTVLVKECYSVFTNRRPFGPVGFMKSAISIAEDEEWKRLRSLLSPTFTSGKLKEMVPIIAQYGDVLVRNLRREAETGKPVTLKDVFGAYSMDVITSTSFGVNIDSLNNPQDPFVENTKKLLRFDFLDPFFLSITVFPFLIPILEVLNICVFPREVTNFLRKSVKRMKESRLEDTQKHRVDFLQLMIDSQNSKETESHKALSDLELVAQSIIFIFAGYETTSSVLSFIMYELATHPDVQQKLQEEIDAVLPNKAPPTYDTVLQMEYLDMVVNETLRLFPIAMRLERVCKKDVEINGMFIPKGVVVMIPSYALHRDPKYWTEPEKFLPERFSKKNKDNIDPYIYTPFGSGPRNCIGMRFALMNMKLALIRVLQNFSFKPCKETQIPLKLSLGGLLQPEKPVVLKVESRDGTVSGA
Method: as §9

[3] = CYP profiling: turnover in human liver microsomes, 30 min, no inhibitor; format: in vitro ADME; design: % Compound Metabolized at 30 min, No Inhibitor: concentration or dose not given beside the values; settings: HLMs
Method: as §9

[4] = HepG2, human HepG2 cells, Plate 1

Row | SMILES | half-life at 1 μM [1] [min] | hepatocyte CLint at 1 μM [1] [µL/min/1e6 cells] | EH (hepatic extraction ratio) (rat hepatocytes) [%] | EH (hepatic extraction ratio) (human hepatocytes) [%] | half-life at 1 μM [2] [min] | hepatocyte CLint at 1 μM [2] [µL/min/1e6 cells] | EC90 (AhR; [4]) [nM] | EC50 (AhR; human HepG2 cells, Plate 1) [nM] | % Compound Metabolized at 30 min, CYP1A2 Inhibitor (CYP1A2) | % Inhibition Relative to Negative Control, 1A2 (CYP1A2) | % Compound Metabolized at 30 min, CYP3A4 Inhibitor (CYP3A4) | % Inhibition Relative to Negative Control, 3A4 (CYP3A4) | % Compound Metabolized at 30 min, No Inhibitor [3] | CLint (rat hepatocytes; 1 μM test compound) [μL/min/10^6 cells] | CLint (human hepatocytes; 1 μM test compound) [μL/min/10^6 cells] | EC90 (AhR; human HepG2 cells, Plate 1) [nM] | EC50 (AhR; human HepG2 cells, Plate 2) [nM] | EC90 (AhR; human HepG2 cells, Plate 2) [nM]
1 | CC(C)(O)c1csc(C(=O)c2c[nH]c3ccccc23)n1 [ARI-215, (1H-indol-3-yl)(4-(2-hydroxypropan-2-yl)thiazol-2-yl)methanone] | 54 | 13.4 | 47.3 | 25.9 | 36 | 17.9 | 135 | 119 |  |  |  |  |  |  |  |  |  | 
2 | Cc1ncc2n1-c1ccc(Cl)cc1C(c1ccccc1F)=NC2 [Midazolam] |  |  |  |  |  |  |  |  | 96% | 2% | 1% and 0% | 99% and 100% | 98% and 97% |  |  |  |  | 
3 | CCC(O)(CC)c1csc(C(=O)c2c[nH]c3cc(F)ccc23)n1 [ARI-210, (6-fluoro-1H-indol-3-yl)(4-(3-hydroxypentan-3-yl)thiazol-2-yl)methanone] | 24 | 29.9 | 66.7 | 25.4 | 42 | 16 | 627 | 241 |  |  |  |  |  |  |  |  |  | 
4 | O=C(c1nc(C(O)C(F)(F)F)cs1)c1c[nH]c2ccccc12 (stereo not drawn) [ARI088] | 60 | 11.6 | 43.7 | 24.1 | 54 | 12.4 |  |  |  |  |  |  |  |  |  |  |  | 
5 | CC[C@@H](O)c1csc(C(=O)c2c[nH]c3ccc(F)cc23)n1 [ARI-195] | 78 | 9.16 | 38.0 | 26.5 | 36 | 20.6 | 847 | 289 |  |  |  |  |  |  |  |  |  | 
6 | CC[C@H](O)c1csc(C(=O)c2c[nH]c3ccc(F)cc23)n1 [ARI-194] | 36 | 18.2 | 55.0 | 26.5 | 36 | 20.5 | 517 | 409 |  |  |  |  |  |  |  |  |  | 
7 | COC(=O)c1csc(C(=O)c2c[nH]c3ccccc23)n1 [ARI-001, ITE, reference compound] |  |  | 85.7 | 31.3 |  |  |  | 4440 |  |  |  |  |  | 89.786 | 767.365 | 13200 | 29000 | 458000
8 | CC[C@H](O)c1nc(C(=O)c2c[nH]c3cc(F)ccc23)cs1 [ARI-213] | 48 | 13.9 | 48.1 | 24.7 | 48 | 14 | 672 | 476 |  |  |  |  |  |  |  |  |  | 
9 | CCOc1ccc(NC(C)=O)cc1 [Phenacitin] |  |  |  |  |  |  |  |  | 3% and 1% | 92% and 97% | 23% | 36% | 36% and 31% |  |  |  |  | 
10 | CCC(C)(O)c1csc(C(=O)c2c[nH]c3cc(F)ccc23)n1 (stereo not drawn) [ARI209, (6-fluoro-1H-indol-3-yl)(4-(2-hydroxybutan-2-yl)thiazol-2-yl)methanone] | 54 | 12.2 | 44.9 | 25.0 | 48 | 14.7 |  |  |  |  |  |  |  |  |  |  |  | 
11 | CC[C@@H](O)c1nc(C(=O)c2c[nH]c3cc(F)ccc23)cs1 [ARI-214] | 84 | 8.01 | 34.9 | 26.7 | 30 | 21.5 | 2810 | 582 |  |  |  |  |  |  |  |  |  | 
